According to US12540131B2 (Merck Sharp & Dohme LLC, priority 2019, dated 2026):

biological target: GST tagged truncated human mutant G2019S LRRK2 (Homo sapiens (Human), UniProt Q5S007, G2019S); assay: LRRK2 Km ATP LanthaScreen Assay; type: biochemical; details: G2019S LRRK2, 134 μM ATP (Km ATP), mean values
In short: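 Enzyme (GST-tagged, truncated) was preincubated with compound for 15 min at RT in 50 mM Tris pH 8.5, 10 mM MgCl2, 0.01% Brij-35, 1 mM EGTA, 2 mM DTT and 0.05 mM orthovanadate. Fluorescein-LRRKtide and 134 μM ATP (Km) were then added for 90 min. EDTA and Tb-anti-pERM antibody stopped the reaction; the TR-FRET 520/495 ratio gave 4-parameter IC50s, reported as mean pIC50.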

Chain of GST tagged truncated human mutant G2019S LRRK2 (Q5S007 970-2527 G2019S): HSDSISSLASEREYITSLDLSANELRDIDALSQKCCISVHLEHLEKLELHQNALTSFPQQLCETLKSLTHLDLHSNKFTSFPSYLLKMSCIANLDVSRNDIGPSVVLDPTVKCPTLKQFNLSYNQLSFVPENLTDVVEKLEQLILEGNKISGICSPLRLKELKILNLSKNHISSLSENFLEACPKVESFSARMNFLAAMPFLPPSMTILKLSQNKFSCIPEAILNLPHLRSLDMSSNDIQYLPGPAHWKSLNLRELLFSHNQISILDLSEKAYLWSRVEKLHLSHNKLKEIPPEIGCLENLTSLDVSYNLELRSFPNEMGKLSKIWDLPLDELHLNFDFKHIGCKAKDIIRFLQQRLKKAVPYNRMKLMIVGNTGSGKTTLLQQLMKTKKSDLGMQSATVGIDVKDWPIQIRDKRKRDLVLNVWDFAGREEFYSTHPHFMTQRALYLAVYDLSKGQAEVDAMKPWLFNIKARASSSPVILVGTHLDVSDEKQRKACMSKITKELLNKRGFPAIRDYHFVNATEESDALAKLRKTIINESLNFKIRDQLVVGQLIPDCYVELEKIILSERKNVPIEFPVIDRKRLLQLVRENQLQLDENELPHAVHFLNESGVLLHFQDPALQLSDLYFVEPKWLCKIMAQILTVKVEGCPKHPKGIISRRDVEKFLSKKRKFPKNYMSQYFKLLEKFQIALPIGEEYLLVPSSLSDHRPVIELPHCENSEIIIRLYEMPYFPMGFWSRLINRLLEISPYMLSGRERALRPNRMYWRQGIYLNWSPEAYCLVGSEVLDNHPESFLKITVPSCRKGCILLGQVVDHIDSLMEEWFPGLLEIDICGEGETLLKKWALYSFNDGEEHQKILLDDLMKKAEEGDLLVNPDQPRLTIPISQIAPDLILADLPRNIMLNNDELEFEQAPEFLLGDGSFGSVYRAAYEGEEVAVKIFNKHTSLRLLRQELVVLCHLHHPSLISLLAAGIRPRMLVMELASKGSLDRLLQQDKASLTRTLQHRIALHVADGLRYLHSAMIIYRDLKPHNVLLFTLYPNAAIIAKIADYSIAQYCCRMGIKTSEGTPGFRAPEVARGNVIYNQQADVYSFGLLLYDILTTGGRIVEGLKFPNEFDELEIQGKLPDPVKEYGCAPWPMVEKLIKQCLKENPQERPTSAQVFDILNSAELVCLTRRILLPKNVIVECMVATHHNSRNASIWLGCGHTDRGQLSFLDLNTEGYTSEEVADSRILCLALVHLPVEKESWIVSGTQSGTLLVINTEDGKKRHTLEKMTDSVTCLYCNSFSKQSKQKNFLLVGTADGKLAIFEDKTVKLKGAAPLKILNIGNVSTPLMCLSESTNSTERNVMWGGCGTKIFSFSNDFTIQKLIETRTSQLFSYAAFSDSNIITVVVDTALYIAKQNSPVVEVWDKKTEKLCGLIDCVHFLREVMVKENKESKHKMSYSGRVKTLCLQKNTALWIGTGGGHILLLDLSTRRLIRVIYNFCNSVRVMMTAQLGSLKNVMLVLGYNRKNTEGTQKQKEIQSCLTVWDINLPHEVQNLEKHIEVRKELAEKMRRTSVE

**Q.** `Cc1c(Nc2ncc3cc(Cl)c(C4CCN(C5CCC(CC#N)C5)CC4)cc3n2)cnn1C1CC1` (single isomer, unassigned) [Ex-4.169, (1R,3R) or (1S,3R) or (1R,3S) or (1S,3S) [3-(4-{6-chloro-2-[(1-cyclopropyl-5-methyl-1H-pyrazol-4-yl)amino]quinazolin-7-yl}piperidin-1-yl)cyclopentyl]acetonitrile] was tested. Which “LRRK2 pIC50” value did it give?
**A.** The value was 8.25.

**Q.** Which “LRRK2 pIC50” value does the source give for `Cc1c(Nc2ncc3cc(Cl)c(C4CCN(C5CCC(CC#N)C5)CC4)cc3n2)cnn1C1CC1` (single isomer, unassigned) [Ex-4.170, (1R,3R) or (1S,3R) or (1R,3S) or (1S,3S) [3-(4-{6-chloro-2-[(1-cyclopropyl-5-methyl-1H-pyrazol-4-yl)amino]quinazolin-7-yl}piperidin-1-yl)cyclopentyl]acetonitrile] here?
**A.** Its value is 8.81.

**Q.** With `Cc1c(Nc2ncc3cc(Cl)c(C4CCN(C5CCC(CC#N)C5)CC4)cc3n2)cnn1C1CC1` (single isomer, unassigned) [Ex-4.171, (1R,3R) or (1S,3R) or (1R,3S) or (1S,3S) [3-(4-{6-chloro-2-[(1-cyclopropyl-5-methyl-1H-pyrazol-4-yl)amino]quinazolin-7-yl}piperidin-1-yl)cyclopentyl]acetonitrile] as the compound, how does the “LRRK2 pIC50” value read?
**A.** Its value is 8.51.

**Q.** For `Cc1c(Nc2ncc3cc(Cl)c([C@H]4CCN(C5COC5)C[C@@H]4F)cc3n2)cnn1C1CC1(F)F` (single isomer, unassigned) [Ex-4.175, (R)(3S,4S) or (S)(3S,4S) or (R)(3R,4R) or (S)(3R,4R) 6-chloro-N-[1-(2,2-difluorocyclopropyl)-5-methyl-1H-pyrazol-4-yl]-7-[(3R,4R)-3-fluoro-1-(oxetan-3-yl)piperidin-4-yl]quinazolin-2-amine], which “LRRK2 pIC50” value is on record?
**A.** The value was 9.10.

**Q.** For `Cc1c(Nc2ncc3cc(Cl)c([C@H]4CCN(C5COC5)C[C@@H]4F)cc3n2)cnn1C1CC1(F)F` (single isomer, unassigned) [Ex-4.176, (R)(3S,4S) or (S)(3S,4S) or (R)(3R,4R) or (S)(3R,4R) 6-chloro-N-[1-(2,2-difluorocyclopropyl)-5-methyl-1H-pyrazol-4-yl]-7-[(3R,4R)-3-fluoro-1-(oxetan-3-yl)piperidin-4-yl]quinazolin-2-amine], which “LRRK2 pIC50” value is on record?
**A.** Its value is 8.73.

**Q.** Which “LRRK2 pIC50” value does the source give for `Cc1c(Nc2ncc3cc(Cl)c([C@@H]4CCN(C5COC5)C[C@H]4F)cc3n2)cnn1C1CC1(F)F` (single isomer, unassigned) [Ex-4.177, (R)(3S,4S) or (S)(3S,4S) or (R)(3R,4R) or (S)(3R,4R) 6-chloro-N-[1-(2,2-difluorocyclopropyl)-5-methyl-1H-pyrazol-4-yl]-7-[(3R,4R)-3-fluoro-1-(oxetan-3-yl)piperidin-4-yl]quinazolin-2-amine] here?
**A.** Its value is 9.16.

**Q.** `Cc1c(Nc2ncc3cc(Cl)c([C@@H]4CCN(C5COC5)C[C@H]4F)cc3n2)cnn1C1CC1(F)F` (single isomer, unassigned) [Ex-4.178, (R)(3S,4S) or (S)(3S,4S) or (R)(3R,4R) or (S)(3R,4R) 6-chloro-N-[1-(2,2-difluorocyclopropyl)-5-methyl-1H-pyrazol-4-yl]-7-[(3R,4R)-3-fluoro-1-(oxetan-3-yl)piperidin-4-yl]quinazolin-2-amine] was tested. Which “LRRK2 pIC50” value did it give?
**A.** Its value is 8.58.

**Q.** How did the “LRRK2 pIC50” value turn out when `Cc1c(Nc2ncc3cc(Cl)c([C@@H]4CCN([C@H]5COC[C@H]5O)C[C@H]4F)cc3n2)cnn1C1CC1(F)F` (single isomer, unassigned) [Ex-4.180, (R)(3S,4S)(3S,4S) or (R)(3S,4S)(3R,4R) or (R)(3R,4R)(3S,4S) or (R)(3R,4R)(3R,4R) or (S)(3S,4S)(3S,4S) or (S)(3S,4S)(3R,4R) or (S)(3R,4R)(3S,4S) or (S)(3R,4R)(3R,4R) 4-(4-(6-chloro-2-((1-(2,2-difluorocyclopropyl)-5-methyl-1H-pyrazol-4-yl)amino)quinazolin-7-yl)-3-fluoropiperidin-1-yl)tetrahydrofuran-3-olyl]amino}quinazolin-7-yl)-3-fluoropiperidin-1-yl]oxolan-3-ol] was run?
**A.** Its value is >9.20.

**Q.** `Cc1c(Nc2ncc3cc(Cl)c([C@@H]4CCN([C@@H]5COC[C@@H]5O)C[C@H]4F)cc3n2)cnn1C1CC1(F)F` (single isomer, unassigned) [Ex-4.181, (R)(3S,4S)(3S,4S) or (R)(3S,4S)(3R,4R) or (R)(3R,4R)(3S,4S) or (R)(3R,4R)(3R,4R) or (S)(3S,4S)(3S,4S) or (S)(3S,4S)(3R,4R) or (S)(3R,4R)(3S,4S) or (S)(3R,4R)(3R,4R) 4-(4-(6-chloro-2-((1-(2,2-difluorocyclopropyl)-5-methyl-1H-pyrazol-4-yl)amino)quinazolin-7-yl)-3-fluoropiperidin-1-yl)tetrahydrofuran-3-olyl]amino}quinazolin-7-yl)-3-fluoropiperidin-1-yl]oxolan-3-ol] was tested. Which “LRRK2 pIC50” value did it give?
**A.** The value was >9.20.

**Q.** Which “LRRK2 pIC50” value does the source give for `Cc1c(Nc2ncc3cc(Cl)c(C4CCN([C@@H]5COC[C@@H]5O)CC4)cc3n2)cnn1C1CC1(F)F` (single isomer, unassigned) [Ex-4.182, (R)(3S,4S) or (S)(3S,4S) or (R)(3R,4R) or (S)(3R,4R) 4-[4-(6-chloro-2-{[1-(2,2-difluorocyclopropyl)-5-methyl-1H-pyrazol-4-yl]amino}quinazolin-7-yl)piperidin-1-yl]oxolan-3-ol] here?
**A.** The value was >9.20.

**Q.** For `Cc1c(Nc2ncc3cc(Cl)c(C4CCN([C@H]5COC[C@H]5O)CC4)cc3n2)cnn1C1CC1(F)F` (single isomer, unassigned) [Ex-4.183, (R)(3S,4S) or (S)(3S,4S) or (R)(3R,4R) or (S)(3R,4R) 4-[4-(6-chloro-2-{[1-(2,2-difluorocyclopropyl)-5-methyl-1H-pyrazol-4-yl]amino}quinazolin-7-yl)piperidin-1-yl]oxolan-3-ol], which “LRRK2 pIC50” value is on record?
**A.** Its value is >9.20.

**Q.** With `O[C@@H]1COCC1N1CC[C@H](c2cc3nc(Nc4cnn(C5CC5(F)F)c4Cl)ncc3cc2Cl)[C@@H](F)C1` (single isomer, unassigned) [Ex-4.184, (R)(3S,4S)(3S,4S) or (R)(3S,4S)(3R,4R) or (R)(3R,4R)(3S,4S) or (R)(3R,4R)(3R,4R) or (S)(3S,4S)(3S,4S) or (S)(3S,4S)(3R,4R) or (S)(3R,4R)(3S,4S) or (S)(3R,4R)(3R,4R) 4-(6-chloro-2-{[5-chloro-1-(2,2-difluorocyclopropyl)-1H-pyrazol-4-yl]amino}quinazolin-7-yl)-3-fluoropiperidin-1-yl]oxolan-3-ol] as the compound, how does the “LRRK2 pIC50” value read?
**A.** Its value is >9.20.

same assay, conditions: G2019S LRRK2, 134 μM ATP (Km ATP), mean values; read-out: LRRK2 pIC50 (converted)

**Q.** `Cc1c(Nc2ncc3cc(Cl)c(C4CCN(C5COC(C)(C)C5)CC4)cc3n2)cnn1C1CC1` (single isomer, unassigned) [Ex-4.173, (R) or (S) 6-chloro-N-(1-cyclopropyl-5-methyl-1H-pyrazol-4-yl)-7-[1-(5,5-dimethyloxolan-3-yl)piperidin-4-yl]quinazolin-2-amine] was tested. Which IC50 did it give?
**A.** The IC50 was 3.72 nM.

**Q.** Which IC50 does the source give for `Cc1c(Nc2ncc3cc(Cl)c(C4CCN(C5COC(C)(C)C5)CC4)cc3n2)cnn1C1CC1` (single isomer, unassigned) [Ex-4.174, (R) or (S) 6-chloro-N-(1-cyclopropyl-5-methyl-1H-pyrazol-4-yl)-7-[1-(5,5-dimethyloxolan-3-yl)piperidin-4-yl]quinazolin-2-amine] here?
**A.** Its IC50 is < 0.631 nM.

**Q.** With `Cc1c(Nc2ncc3cc(Cl)c(C4CCN(C5COC5)CC4)cc3n2)cnn1C1CC1(F)F` (single isomer, unassigned) [Ex-4.179, (R) or (S) 6-chloro-N-[1-(2,2-difluorocyclopropyl)-5-methyl-1H-pyrazol-4-yl]-7-[1-(oxetan-3-yl)piperidin-4-yl]quinazolin-2-amine] as the compound, how does the IC50 read?
**A.** Its IC50 is < 0.631 nM.
